Experimental data from patent US20130143969A1 (THE OHIO STATE UNIVERSITY, priority 2010, published 2013).

Key:
[1] = Stability of curcumin in reconstituted solution in auto-sampler at 4° C; format: physicochemical; conditions: auto-sampler 4° C, up to 8 hours
Description: Therefore, all mouse blood and plasma samples have to be processed on ice to avoid potential degradation for its pharmacokinetic studies.

DNMT3a = DNMT3a mRNA in MV4-11 engrafted tumor tissues; format: in vivo; conditions: MV4-11 engrafted mice, curcumin i.p. 100 mg/kg
Procedure: (§1) Quantitative RT-PCR was used to quantify the mRNA levels of DNMT1, DNMT3a, DNMT3b, p15INK4B and p21. Total RNA was extracted with Trizol reagent (Invitrogen, Carlsbad, Calif.) and reverse transcribed by reverse transcriptase (Invitrogen). Quantitative real-time PCR reactions were performed in triplicate using Taqman gene expression assay (Applied Biosystems) with an ABI prism 7700 detector (Applied Biosystems). The target gene values were normalized to the values of internal control GAPDH or 18 S, and expressed as relative percent change (100×2^(˜ΔΔCt)) over non-treated samples.
Female athymic nu/nu mice (4-6 weeks old, 18-22 g) were obtained from Charles River Laboratory (Wilmington, Mass.) and acclimated for 1 week in a pathogen-free enclosure before start of study. Animals were given sterile rodent chow and water ad libitum and were housed in sterile filter-top cages with 12 hour light/dark cycles. All experiments were conducted in accordance with the guidelines of the Association for Assessment and Accreditation of Laboratory Animal Care International. […] Tumor volume was calculated by using the equation V=2×A×B^2/3, where A is the longer (horizontal as width) diameter (mm) and B is the shorter (perpendicular as depth) diameter (mm) and expressed in cubic millimeter. […]

p15^INK4B = assay: Quantitative RT-PCR of p15INK4B mRNA in leukemia cells; format: cell-based; conditions: for increase of p15INK4B expression level: MV4-11 cells, 10 μM curcumin
Procedure: (§2) Cell Cycle and Apoptosis Analysis: MV4-11, ML-1, HL-60 and K562 leukemia cell lines were cultured in RPMI medium (VWR International, Inc., West Chester, Pa.) supplemented with 10% fetal bovine serum (Invitrogen, Carlsbad, Calif.) and 1% (v/v) penicillin/streptomycin (Invitrogen Life Technologies; Carlsbad, Calif.) antibiotic solution at 37° C. in an incubator under 5% CO2 atmosphere. For the ex-vivo studies, mononuclear cells obtained from bone marrow (BM) of patient with AML were prepared by Ficoll-Hypaque (Nygaard) gradient centrifugation and cultured with serum-free expansion medium (SFEM) (StemCell technologies, Vancouver, BC) supplemented with GM-CSF (50 ng/ml), IL-3 (20 ng/ml), IL-6 (20 ng/ml) and SCF ([…]). […] The cell cycle and apoptosis of MV4-11 cells was analyzed on a BD FACS Calibur (Beckman Coulter, Fullerton, Calif.) according to the standard protocol provided by the manufacturer.
as §1

[2] = tested on: p15^INK4B promoter region; assay: DNA methylation analysis of the p15INK4B promoter region (LC-MS/MS); format: cell-based; conditions: MV4-11 cells, 10 μM curcumin, 72 hours
Procedure: Genomic DNA isolated from MV4-11 cells was treated with bisulfite using the Epi methylation Kit (Qiagen, Minneapolis, Minn.) according to the instruction from the manufacturer and followed by PCR amplification as follows. The sequences of p15^INK4B primers were: forward 5′-GGGAGGGTAATGAAGTTGAGTTTA-3′ (SEQ ID NO. 1), and reverse 5′-ACCCTAAAACCCCAACTACCTAAAT-3′ (SEQ ID NO. 2). PCR amplifications were performed as follows: 95° C. for 5.5 min, 55° C. for 30s for 5 cycles, and 52° C. for 30 s for 38 cycles, 72° C. for 30s for 38 cycles, with a final step at 72° C. for 1 min. PCRs were carried out in a 100 μl volume containing 10 μl of buffer (10×), 2 μL of each primer (10 μM), 2 μL of (10 mM) dNTPs, 2 U of Platinum Taq DNA polymerase (Invitrogen, Carlsbad, Calif.), 70.6 μL ddH2O and 10 μL of bisulfite treated DNA in a GeneAmp 9700 thermal cycler (Perkin-Elmer, Norwalk, Conn.). PCR products were purified using QIAquick columns and eluted in water. A 500 ng aliquot of the PCR product was incubated with 25 UM. […] Fully methylated PCR products were purified using the QIAquick PCR Purification kit (Qiagen, Minneapolis, Minn.), according to the manufacturer's instructions and 200 ng of the purified DNA was hydrolyzed and the concentrations of 5mdC and 2dC in the hydrolysate were measured by LC-MS/MS using the conditions as described previously.

MV4-11 cells [3] = assay: Cell cycle distribution by flow cytometry; format: cell-based; conditions: 10 μM curcumin, 48 hour
Procedure: as §2

MV4-11 cells [4] = assay: Apoptosis analysis; format: cell-based; conditions: 10 μM curcumin
Procedure: as §2

K562 = assay: Cytotoxicity; format: cell-based; conditions: Homo sapiens
[5] = tested on: MV4-11 leukemia cell-engrafted animal model; assay: Xenograft animal model, anti-tumor growth activity; format: in vivo, athymic nu/nu mice
Procedure: Female athymic nu/nu mice (4-6 weeks old, 18-22 g) were obtained from Charles River Laboratory (Wilmington, Mass.) and acclimated for 1 week in a pathogen-free enclosure before start of study. Animals were given sterile rodent chow and water ad libitum and were housed in sterile filter-top cages with 12 hour light/dark cycles. All experiments were conducted in accordance with the guidelines of the Association for Assessment and Accreditation of Laboratory Animal Care International. MV4-11 cells (5×10^6 cells per mouse) were suspended with 50% Matrigel (Becton Dickinson) and subcutaneously implanted into both right and left flanks of the athymic nu/nu mice. When tumors were grown between 100 to 200 mm^3, treatments were initiated. Mice were randomly assigned into two cohorts for the anti-tumor growth activity studies, with 6 mice per group. […] Tumor volume was calculated by using the equation V=2×A×B^2/3, where A is the longer (horizontal as width) diameter (mm) and B is the shorter (perpendicular as depth) diameter (mm) and expressed in cubic millimeter. After 4 weeks, mice were euthanized and tumor tissues were excised, snapfrozen in liquid nitrogen, weighed and stored in a −80° C. freezer until analysis.

[6] = rats, orally administered; cited from earlier work
[7] = day 29 after the treatment, i.p. 100 mg/kg

Question: Which “% of original concentrations remaining” value [1] does the source give for `COc1cc(/C=C/C(=O)CC(=O)/C=C/c2ccc(O)c(OC)c2)ccc1O` [curcumin] here?
Answer: > 85%

Question: And the “mRNA level of DNMT3a in engrafted tissues” value (DNMT3a)?
Answer: significantly decreases

Question: And the p15INK4B reactivation (p15^INK4B; AML primary blast cells)?
Answer: reactivated

Question: What about the p15INK4B reactivation (p15^INK4B; HL-60 leukemia cells) of the same molecule?
Answer: reactivated

Question: What about the “increase of p15INK4B expression level” value (p15^INK4B; 48 hours) of the same molecule?
Answer: approximately 12 fold

Question: And the “increase of p15INK4B expression level” value (p15^INK4B; 72 hours)?
Answer: ~43 fold

Question: And the “decrease of p15INK4B promoter methylation level” value [2]?
Answer: about 40%

Question: And the “cell population in G0/G1 phase” value (MV4-11 cells [3])?
Answer: 52.0%

Question: What about the “cell population in G2/M phase” value (MV4-11 cells [3]) of the same molecule?
Answer: 8.0%

Question: And the “cell population in S phase” value (MV4-11 cells [3])?
Answer: 16.1%

Question: And the “cell population in SubG1 phase” value (MV4-11 cells [3])?
Answer: 24.9%

Question: And the “portion of apoptotic cells” value (MV4-11 cells [4])?
Answer: ~30%

Question: What about the IC50 (K562) of the same molecule?
Answer: 10.4 µM

Question: And the tumor size decrease ([5]; MV4-11 engrafted nude mice (summary))?
Answer: about 65%

Question: What about the “reduction of tumor size” value [5, 7] of the same molecule?
Answer: 3854 mm^3

Question: What about the “reduction of tumor weight” value [5, 7] of the same molecule?
Answer: 65%

Question: And the body weight ([5]; i.p. 100 mg/kg five days a week, 4 weeks)?
Answer: No significant weight loss

Question: What about the “decrease of tumor growth rate compared with control” value ([5]; i.p. 100 mg/kg, linear mixed effect model) of the same molecule?
Answer: 142.5 mm^3 per day

Question: What about the “life span of MV4-11 engrafted nude mice” value ([5]; pilot study) of the same molecule?
Answer: 6 weeks

Question: And the average tumor weight ([5]; treatment group)?
Answer: 3.6 g

Question: And the “elimination half-life (T1/2)” value [6]?
Answer: 1.7 ± 0.5 h
